Assay results reported in ChEMBL document CHEMBL5653631, “A Potent and Selective ULK1 Inhibitor Suppresses Autophagy and Sensitizes Cancer Cells to Nutrient Stress” (iScience, 2018).
One block for each compound: values may come before it.

Experiments:
[1] = target: Tyrosine-protein kinase FRK (Homo sapiens) (UniProt P42685); assay: Inhibition of human recombinant FRK at 500 nM in presence of ATP by radiometric assay relative to control
[2] = target: Rho-associated protein kinase 2 (Homo sapiens) (UniProt O75116); assay: Inhibition of human recombinant ROCK2 at 500 nM in presence of ATP by radiometric assay relative to control
[3] = target: Epithelial discoidin domain-containing receptor 1 (Homo sapiens) (UniProt Q08345); assay: Inhibition of human recombinant DDR1 at 500 nM related to control ULK1
[4] = target: T1, Dual specificity tyrosine-phosphorylation-regulated kinase 3 (Homo sapiens) (UniProt O43781); assay: Inhibition of human recombinant DYRK3 at 500 nM related to control ULK1
T1 sequence (whole entry): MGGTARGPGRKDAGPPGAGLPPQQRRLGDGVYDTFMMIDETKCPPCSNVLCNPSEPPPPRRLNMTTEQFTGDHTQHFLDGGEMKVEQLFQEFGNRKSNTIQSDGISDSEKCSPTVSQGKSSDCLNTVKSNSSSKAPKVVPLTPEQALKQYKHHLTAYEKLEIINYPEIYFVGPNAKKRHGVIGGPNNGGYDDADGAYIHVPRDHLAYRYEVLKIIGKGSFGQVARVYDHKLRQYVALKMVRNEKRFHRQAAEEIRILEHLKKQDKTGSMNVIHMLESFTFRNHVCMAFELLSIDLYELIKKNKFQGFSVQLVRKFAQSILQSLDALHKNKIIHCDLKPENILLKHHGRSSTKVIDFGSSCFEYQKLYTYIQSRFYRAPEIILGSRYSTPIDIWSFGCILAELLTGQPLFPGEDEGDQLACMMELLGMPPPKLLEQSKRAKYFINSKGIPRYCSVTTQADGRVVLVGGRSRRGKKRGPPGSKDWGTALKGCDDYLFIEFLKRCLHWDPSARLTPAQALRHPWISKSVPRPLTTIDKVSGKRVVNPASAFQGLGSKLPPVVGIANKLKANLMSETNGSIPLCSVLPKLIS

[5] = target: T2, Serine/threonine-protein kinase Nek2 (Homo sapiens) (UniProt P51955); assay: Inhibition of human recombinant NEK2 at 500 nM related to control ULK1
T2 sequence (whole entry): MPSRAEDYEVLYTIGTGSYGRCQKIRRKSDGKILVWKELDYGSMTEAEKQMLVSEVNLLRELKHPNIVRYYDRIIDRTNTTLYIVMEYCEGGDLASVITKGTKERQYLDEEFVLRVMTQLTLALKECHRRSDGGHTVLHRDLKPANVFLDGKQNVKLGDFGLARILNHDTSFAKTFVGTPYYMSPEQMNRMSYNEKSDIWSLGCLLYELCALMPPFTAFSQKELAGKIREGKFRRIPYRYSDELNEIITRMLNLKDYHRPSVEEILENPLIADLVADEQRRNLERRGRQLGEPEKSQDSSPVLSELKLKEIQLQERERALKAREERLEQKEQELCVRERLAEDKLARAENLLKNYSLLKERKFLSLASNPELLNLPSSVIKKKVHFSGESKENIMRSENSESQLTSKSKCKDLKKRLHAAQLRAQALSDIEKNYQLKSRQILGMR

Homo sapiens = organism: Homo sapiens; assay: Inhibition of human recombinant CK1d at 40 nM in presence of ATP by radiometric assay relative to control
[6] = target: Dual specificity protein kinase CLK1 (Homo sapiens) (UniProt P49759); assay: Inhibition of human recombinant CLK1 at 40 nM related to control ULK1
[7] = target: T3, Serine/threonine-protein kinase Nek1 (Homo sapiens) (UniProt Q96PY6); assay: Inhibition of human recombinant NEK1 at 15 nM in presence of ATP by radiometric assay relative to control
T3 sequence (whole entry): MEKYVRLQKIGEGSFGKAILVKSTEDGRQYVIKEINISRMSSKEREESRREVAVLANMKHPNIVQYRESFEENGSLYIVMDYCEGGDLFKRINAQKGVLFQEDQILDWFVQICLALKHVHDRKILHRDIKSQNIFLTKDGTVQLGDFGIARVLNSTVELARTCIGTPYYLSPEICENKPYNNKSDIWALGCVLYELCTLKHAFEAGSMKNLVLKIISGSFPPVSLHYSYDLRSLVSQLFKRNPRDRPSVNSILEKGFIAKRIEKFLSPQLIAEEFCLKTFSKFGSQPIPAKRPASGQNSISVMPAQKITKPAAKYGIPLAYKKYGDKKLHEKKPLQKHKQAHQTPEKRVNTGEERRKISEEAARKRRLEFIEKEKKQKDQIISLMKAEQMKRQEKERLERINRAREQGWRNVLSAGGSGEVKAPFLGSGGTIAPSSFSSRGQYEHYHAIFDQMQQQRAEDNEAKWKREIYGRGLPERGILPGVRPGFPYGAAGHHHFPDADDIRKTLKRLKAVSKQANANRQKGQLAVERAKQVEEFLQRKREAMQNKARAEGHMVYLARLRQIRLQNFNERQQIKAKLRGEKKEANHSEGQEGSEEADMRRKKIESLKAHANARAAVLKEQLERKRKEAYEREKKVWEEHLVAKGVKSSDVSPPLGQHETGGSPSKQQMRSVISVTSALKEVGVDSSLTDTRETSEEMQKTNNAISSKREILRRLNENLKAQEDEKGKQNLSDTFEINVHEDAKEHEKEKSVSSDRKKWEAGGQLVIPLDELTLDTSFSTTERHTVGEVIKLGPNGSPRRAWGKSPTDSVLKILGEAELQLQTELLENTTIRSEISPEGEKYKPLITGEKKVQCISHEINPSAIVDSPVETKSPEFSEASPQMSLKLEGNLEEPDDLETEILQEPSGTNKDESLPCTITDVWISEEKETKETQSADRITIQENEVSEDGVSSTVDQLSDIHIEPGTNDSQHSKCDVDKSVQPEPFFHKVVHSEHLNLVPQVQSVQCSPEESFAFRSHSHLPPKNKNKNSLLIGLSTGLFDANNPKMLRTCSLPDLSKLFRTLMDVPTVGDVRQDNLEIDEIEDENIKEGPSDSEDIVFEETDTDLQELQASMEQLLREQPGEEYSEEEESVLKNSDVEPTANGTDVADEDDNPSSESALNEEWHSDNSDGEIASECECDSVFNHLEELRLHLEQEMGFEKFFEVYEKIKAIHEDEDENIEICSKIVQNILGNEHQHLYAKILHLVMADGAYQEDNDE

[8] = target: MAP kinase-interacting serine/threonine-protein kinase 2 (Homo sapiens, UniProt Q9HBH9); assay: Inhibition of human recombinant MNK2 at 15 nM related to control ULK1
MAP kinase-interacting serine/threonine-protein kinase 2, sequence (Q9HBH9 whole entry, looked up): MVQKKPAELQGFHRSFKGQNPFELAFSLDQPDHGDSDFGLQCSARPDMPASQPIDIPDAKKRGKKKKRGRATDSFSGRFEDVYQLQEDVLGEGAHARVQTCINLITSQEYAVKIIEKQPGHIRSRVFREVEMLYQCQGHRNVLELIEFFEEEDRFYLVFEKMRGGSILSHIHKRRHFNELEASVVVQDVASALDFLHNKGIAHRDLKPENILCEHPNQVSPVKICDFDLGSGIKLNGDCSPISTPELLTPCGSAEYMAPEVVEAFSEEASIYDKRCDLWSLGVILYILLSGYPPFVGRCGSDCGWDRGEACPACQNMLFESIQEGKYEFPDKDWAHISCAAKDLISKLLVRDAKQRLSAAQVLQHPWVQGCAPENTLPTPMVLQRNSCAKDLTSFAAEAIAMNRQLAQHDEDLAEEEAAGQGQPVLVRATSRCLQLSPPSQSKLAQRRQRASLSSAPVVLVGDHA

Epithelial discoidin domain-containing receptor 1 (Homo sapiens), sequence (Q08345 whole entry, the tested form may be a part): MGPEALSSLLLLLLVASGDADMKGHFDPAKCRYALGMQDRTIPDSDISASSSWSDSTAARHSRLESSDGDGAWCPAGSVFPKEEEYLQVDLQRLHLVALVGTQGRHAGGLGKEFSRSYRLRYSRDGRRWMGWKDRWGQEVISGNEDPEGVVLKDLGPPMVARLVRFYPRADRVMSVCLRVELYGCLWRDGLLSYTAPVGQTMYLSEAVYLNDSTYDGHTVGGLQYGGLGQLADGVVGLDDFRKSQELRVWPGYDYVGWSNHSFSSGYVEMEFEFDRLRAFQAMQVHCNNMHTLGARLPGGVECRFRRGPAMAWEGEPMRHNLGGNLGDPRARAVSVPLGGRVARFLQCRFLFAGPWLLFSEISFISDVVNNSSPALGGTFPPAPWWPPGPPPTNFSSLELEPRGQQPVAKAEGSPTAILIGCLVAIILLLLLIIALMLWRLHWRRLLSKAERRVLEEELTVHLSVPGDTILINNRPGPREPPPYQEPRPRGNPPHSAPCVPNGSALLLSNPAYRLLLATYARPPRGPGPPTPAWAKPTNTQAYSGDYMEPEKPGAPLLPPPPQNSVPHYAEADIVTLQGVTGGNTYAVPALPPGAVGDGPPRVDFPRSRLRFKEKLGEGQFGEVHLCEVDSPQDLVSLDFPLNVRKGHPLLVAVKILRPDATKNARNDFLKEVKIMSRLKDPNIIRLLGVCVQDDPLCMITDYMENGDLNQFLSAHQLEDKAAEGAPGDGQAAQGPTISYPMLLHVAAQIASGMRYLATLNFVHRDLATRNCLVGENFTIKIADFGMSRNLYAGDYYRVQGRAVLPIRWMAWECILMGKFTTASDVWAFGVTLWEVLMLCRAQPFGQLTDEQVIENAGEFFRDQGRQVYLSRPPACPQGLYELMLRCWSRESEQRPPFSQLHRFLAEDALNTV
Tyrosine-protein kinase FRK (Homo sapiens), sequence (P42685 whole entry): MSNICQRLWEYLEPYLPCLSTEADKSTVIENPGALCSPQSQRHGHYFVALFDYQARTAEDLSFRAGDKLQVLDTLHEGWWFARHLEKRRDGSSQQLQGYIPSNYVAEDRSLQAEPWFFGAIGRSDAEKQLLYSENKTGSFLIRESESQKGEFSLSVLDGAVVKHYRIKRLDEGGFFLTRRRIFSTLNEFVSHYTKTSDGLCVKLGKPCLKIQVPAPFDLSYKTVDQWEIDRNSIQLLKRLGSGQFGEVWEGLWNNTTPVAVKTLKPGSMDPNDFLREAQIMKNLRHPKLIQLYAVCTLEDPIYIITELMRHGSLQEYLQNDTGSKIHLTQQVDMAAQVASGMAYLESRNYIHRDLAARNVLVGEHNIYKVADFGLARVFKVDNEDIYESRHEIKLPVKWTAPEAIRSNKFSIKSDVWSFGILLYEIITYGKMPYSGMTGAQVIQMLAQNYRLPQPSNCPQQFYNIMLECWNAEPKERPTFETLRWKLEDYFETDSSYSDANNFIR
Dual specificity protein kinase CLK1 (Homo sapiens), sequence (P49759 whole entry, looked up): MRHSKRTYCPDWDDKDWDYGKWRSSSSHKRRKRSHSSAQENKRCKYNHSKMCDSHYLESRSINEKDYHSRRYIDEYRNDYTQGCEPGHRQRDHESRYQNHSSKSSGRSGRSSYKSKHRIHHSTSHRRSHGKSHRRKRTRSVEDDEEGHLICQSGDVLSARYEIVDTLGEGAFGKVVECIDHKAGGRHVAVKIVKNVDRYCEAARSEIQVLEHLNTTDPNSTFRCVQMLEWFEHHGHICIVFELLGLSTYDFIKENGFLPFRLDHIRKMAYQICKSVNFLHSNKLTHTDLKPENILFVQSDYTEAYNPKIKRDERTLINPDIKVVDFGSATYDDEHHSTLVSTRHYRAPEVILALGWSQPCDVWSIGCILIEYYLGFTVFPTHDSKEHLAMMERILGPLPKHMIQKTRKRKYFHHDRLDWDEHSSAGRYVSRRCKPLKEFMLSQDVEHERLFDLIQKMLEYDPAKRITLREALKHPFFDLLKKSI
Rho-associated protein kinase 2 (Homo sapiens), sequence (O75116 whole entry, looked up, the tested form may be a part): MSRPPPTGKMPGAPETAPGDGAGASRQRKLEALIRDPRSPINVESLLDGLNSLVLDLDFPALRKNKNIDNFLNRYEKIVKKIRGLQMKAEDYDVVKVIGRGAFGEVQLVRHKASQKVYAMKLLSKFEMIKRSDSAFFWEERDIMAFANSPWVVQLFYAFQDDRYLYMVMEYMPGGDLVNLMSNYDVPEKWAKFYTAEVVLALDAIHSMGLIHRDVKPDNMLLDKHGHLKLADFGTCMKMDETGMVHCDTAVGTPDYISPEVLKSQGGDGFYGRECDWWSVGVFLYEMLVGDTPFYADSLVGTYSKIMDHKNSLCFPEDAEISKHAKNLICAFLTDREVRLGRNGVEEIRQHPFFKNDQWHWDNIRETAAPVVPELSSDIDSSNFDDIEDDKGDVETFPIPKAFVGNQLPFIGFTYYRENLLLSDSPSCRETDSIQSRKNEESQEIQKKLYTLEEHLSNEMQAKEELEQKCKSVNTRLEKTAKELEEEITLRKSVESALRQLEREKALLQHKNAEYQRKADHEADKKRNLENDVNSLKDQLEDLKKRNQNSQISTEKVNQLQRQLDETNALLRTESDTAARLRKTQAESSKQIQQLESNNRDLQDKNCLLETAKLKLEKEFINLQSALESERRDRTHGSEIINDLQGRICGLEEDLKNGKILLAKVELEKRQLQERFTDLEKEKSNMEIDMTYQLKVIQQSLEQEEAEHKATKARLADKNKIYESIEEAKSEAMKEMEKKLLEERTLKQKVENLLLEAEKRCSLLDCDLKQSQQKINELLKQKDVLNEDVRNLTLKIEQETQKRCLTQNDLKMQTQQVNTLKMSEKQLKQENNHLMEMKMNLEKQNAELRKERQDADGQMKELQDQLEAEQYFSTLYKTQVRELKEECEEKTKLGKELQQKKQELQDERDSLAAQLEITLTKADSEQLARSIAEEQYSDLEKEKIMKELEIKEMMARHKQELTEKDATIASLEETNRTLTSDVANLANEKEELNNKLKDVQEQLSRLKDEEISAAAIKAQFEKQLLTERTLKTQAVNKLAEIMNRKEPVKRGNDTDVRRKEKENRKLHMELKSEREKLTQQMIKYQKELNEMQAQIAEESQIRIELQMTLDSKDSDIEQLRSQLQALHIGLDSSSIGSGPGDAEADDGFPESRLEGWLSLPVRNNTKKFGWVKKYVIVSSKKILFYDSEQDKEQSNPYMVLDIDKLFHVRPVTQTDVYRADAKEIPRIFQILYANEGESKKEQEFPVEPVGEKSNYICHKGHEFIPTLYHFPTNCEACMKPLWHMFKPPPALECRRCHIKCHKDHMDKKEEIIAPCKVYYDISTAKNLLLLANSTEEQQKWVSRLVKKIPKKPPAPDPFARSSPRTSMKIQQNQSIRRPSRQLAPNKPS

inhibition [1]: 9% | inhibition [2]: 0% | fold change (FC) [3]: 0.64 | fold change (FC) [4]: 0 | fold change (FC) [5]: 0
SMILES: CNC(=O)c1ccccc1Oc1nc(Nc2cc(OC)c(OC)c(OC)c2)ncc1Br

inhibition (Homo sapiens): 3% | fold change (FC) [6]: 0.47
SMILES: O=C(N[C@@H](C1CC1)C(F)(F)F)c1cc(-c2cnn3cc(-c4ccc(F)cc4)cnc23)cs1

inhibition [7]: 3% | fold change (FC) [8]: 0.3
SMILES: CC(C)[C@H](NC(=O)c1cc(-c2cnn3cc(-c4ccc(OCCN5CCCCC5)cc4)cnc23)cs1)C(F)(F)F
